ChEMBL document CHEMBL1201862, “PubChem BioAssay data set” (2004)
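Assay format: 96-well plates, 48-hour exposure. GI50 = concentration required for 50% inhibition of growth.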 The source made the active and inactive calls. Cut-off read from the data, not from the text of the source: active = GI50 up to about 1.1 µM and inactive = higher.

Key:
Experiment in all cases: growth of human tumour cells (NCI), 48 h
[1] = tested on: SK-MEL-28
[2] = tested on: MOLT-4
[3] = tested on: M14
[4] = tested on: UACC-62
[5] = tested on: LOX IMVI
[6] = tested on: HOP-92
[7] = tested on: TK-10
[8] = tested on: NCI-H460
[9] = tested on: SW-620
[10] = tested on: COLO 205
[11] = tested on: HOP-62
[12] = tested on: HL-60
[13] = tested on: ACHN
[14] = tested on: NCI-H522
[15] = tested on: UO-31
[16] = tested on: OVCAR-5

Measured: GI50

CC(C)(C)c1cc(O)c2c(c1O)C(=O)CCC2
inactive: [1] 42.6 µM | [2] 23.9 µM | [3] 34.9 µM | [4] 26 µM | [5] 28.4 µM | [6] 2.69 µM | [7] 40.9 µM | [8] 48 µM | [9] 57.8 µM | [10] 73.8 µM | [11] 22.8 µM | [12] 20.2 µM | [13] 50.2 µM

[O-]/[N+](=C\c1ccccc1)[C@H](COCc1ccccc1)c1ccccc1
inactive: [1] > 100 µM | [2] 36.5 µM | [5] > 100 µM | [6] 24.8 µM | [7] > 100 µM | [14] 29.5 µM | [8] > 100 µM | [15] 24.2 µM | [9] > 100 µM | [10] > 100 µM | [16] > 100 µM | [11] > 100 µM | [12] 25.2 µM | [13] 66.4 µM

O=C(Nc1ccccc1)c1ccc(Cl)c([N+](=O)[O-])c1
inactive: [1] 22.4 µM | [2] 3.85 µM | [3] 10.2 µM | [4] 6.68 µM | [5] 4.46 µM | [7] 29.3 µM | [14] 6.79 µM | [8] 6.31 µM | [15] 36.1 µM | [9] 4.85 µM | [10] 28.2 µM | [11] 32.7 µM

Nc1ccc(C(=O)N/C(=C\c2ccc3c(c2)OCO3)c2nc3ccc4c(c3[nH]2)C(=O)c2ccccc2C4=O)cc1
inactive: [1] 33.1 µM | [2] 4.75 µM | [3] 37.8 µM | [4] 33.7 µM | [5] 26.1 µM | [6] 17.5 µM | [7] 23.1 µM | [14] 6.75 µM | [8] 26.4 µM | [15] 2.64 µM | [9] 27.2 µM | [10] 52.6 µM | [16] > 100 µM | [11] 36.8 µM | [13] 13.9 µM

CC(NC(=O)C(=O)N/N=C1\C[C@@H](c2ccccc2)Nc2ccccc21)c1ccccc1 (stereo partly specified)
inactive: [1] > 100 µM | [3] > 100 µM | [5] > 100 µM | [6] 20 µM | [7] > 100 µM | [14] > 100 µM | [8] > 100 µM | [15] 33 µM | [9] > 100 µM | [10] 48.2 µM | [16] > 100 µM | [11] > 100 µM | [12] 8.57 µM | [13] 36.1 µM

CC(=O)NNc1nc(C)c(C(/C=C/c2ccc(Cl)cc2)=N/NC(=O)C[N+](C)(C)C)s1
inactive: [1] > 100 µM | [2] > 100 µM | [3] > 100 µM | [4] > 100 µM | [5] > 100 µM | [6] > 100 µM | [7] > 100 µM | [14] > 100 µM | [8] > 100 µM | [15] > 100 µM | [9] > 100 µM | [10] > 100 µM | [16] > 100 µM | [12] > 100 µM | [13] > 100 µM

NCc1c(C(N)=O)ncn1Cc1ccccc1
inactive: [1] > 100 µM | [2] > 100 µM | [3] > 100 µM | [4] > 100 µM | [5] > 100 µM | [6] 65.9 µM | [7] > 100 µM | [8] > 100 µM | [9] > 100 µM | [10] > 100 µM | [11] > 100 µM | [12] > 100 µM | [13] > 100 µM

CC(=O)N(C)c1ccc2c(ccc[n+]2[O-])c1[N+](=O)[O-]
inactive: [1] > 100 µM | [2] > 100 µM | [3] > 100 µM | [4] > 100 µM | [5] > 100 µM | [7] > 100 µM | [8] > 100 µM | [15] > 100 µM | [9] > 100 µM | [10] > 100 µM | [16] > 100 µM | [11] > 100 µM | [12] > 100 µM | [13] > 100 µM

CCN(C(C)=N)c1ccccc1
inactive: [1] 68.4 µM | [2] 72.6 µM | [3] > 100 µM | [4] > 100 µM | [5] > 100 µM | [6] 60.4 µM | [7] > 100 µM | [14] 50.2 µM | [8] > 100 µM | [15] 39 µM | [9] > 100 µM | [10] > 100 µM | [16] > 100 µM | [11] 66.4 µM | [12] 32.8 µM | [13] 61.5 µM

CC1=NN2C(c3ccc(C)cc3)=CSC2=NC(C)(C)C1
inactive: [1] > 100 µM | [2] > 100 µM | [3] > 100 µM | [4] > 100 µM | [5] > 100 µM | [6] > 100 µM | [7] > 100 µM | [14] > 100 µM | [8] > 100 µM | [15] > 100 µM | [9] > 100 µM | [10] > 100 µM | [16] > 100 µM | [11] > 100 µM | [12] 76.2 µM | [13] > 100 µM

COC(=O)C1N=CSCC1(C)O (stereo unspecified)
inactive: [1] > 100 µM | [2] > 100 µM | [3] > 100 µM | [4] > 100 µM | [5] > 100 µM | [6] > 100 µM | [7] > 100 µM | [8] > 100 µM | [15] > 100 µM | [9] > 100 µM | [10] > 100 µM | [16] > 100 µM | [11] > 100 µM | [12] > 100 µM | [13] > 100 µM

COc1ccc(/C=C/C(=O)C(C)(C)CN2CCCCC2)cc1
inactive: [1] 24.2 µM | [2] 21.8 µM | [3] 18.2 µM | [4] 24.7 µM | [5] 14.9 µM | [7] 20.8 µM | [14] 14 µM | [8] 18.7 µM | [15] 17.7 µM | [9] 1.13 µM | [10] 15.6 µM | [16] 33.7 µM | [11] 32.2 µM | [12] 18.6 µM | [13] 24.4 µM

O=C(/C=C\c1cccc2ccccc12)c1ccc(Cl)cc1Cl
inactive: [1] 18.5 µM | [2] 28.5 µM | [3] 19.4 µM | [4] 16.7 µM | [7] 97.1 µM | [14] 19.2 µM | [8] 23.4 µM | [15] 53 µM | [9] 20 µM | [10] 22.4 µM | [16] 24.4 µM | [11] > 100 µM | [12] 18.2 µM | [13] 18.6 µM

Nc1nc(N)c(-c2ccccc2)c(C(=O)Nc2nccs2)n1
inactive: [1] > 100 µM | [2] > 100 µM | [3] > 100 µM | [4] > 100 µM | [5] > 100 µM | [6] > 100 µM | [7] > 100 µM | [8] > 100 µM | [15] > 100 µM | [9] > 100 µM | [10] > 100 µM | [16] > 100 µM | [11] > 100 µM | [12] > 100 µM | [13] > 100 µM
